In US10555932B2, “Method of restoring analgesic efficacy of alpha2-adrenoceptor agonists in neuropathic pain treatment” (KOREA INSTITUTE OF SCIENCE AND TECHNOLOGY, priority 2016, dated 2020):
Structures can show the parent of a compound that is named as a salt.

Assays:
[1] = tested on: mice having neuropathic pain induced by a spared nerve injury (SNI); conditions: for analgesic efficacy at the chronic stage of the neuropathic pain / analgesic efficacy at the earlier stage of the neuropathic pain: agonist alone; for analgesic efficacy upon co-administration of CCG 50014 (RGS4 inhibitor): at 14, 28, or even 56 days after SNI, CCG50014 intrathecally 5 minutes before agonist (FIGS. 3 and 4); for analgesic effect of 1 nmol at 14 days after SNI / analgesic effect at 28 days after SNI / analgesic effect at 56 days after SNI / analgesic effect at 14 days after SNI / higher dose needed at 56 days after SNI for analgesic effect similar to that at 14 days after SNI / neuropathic pain induced by SNI (withdrawal threshold): mouse; for analgesic effect of 1 nmol at 14 days after SNI / analgesic effect at 28 days after SNI / analgesic effect at 56 days after SNI / analgesic effect at 14 days after SNI / higher dose needed at 56 days after SNI for analgesic effect similar to that at 14 days after SNI: intrathecal; for analgesic effect of 1 nmol at 14 days after SNI: alone (FIGS. 5 and 6); for analgesic effect at 28 days after SNI / analgesic effect at 56 days after SNI / analgesic effect at 14 days after SNI / higher dose needed at 56 days after SNI for analgesic effect similar to that at 14 days after SNI: alone; for analgesic effect at 14 days after SNI: as doses increased; for higher dose needed at 56 days after SNI for analgesic effect similar to that at 14 days after SNI: relative to 1 nmol at 14 days; for neuropathic pain induced by SNI (withdrawal threshold): single intrathecal injection, agonist alone (FIGS. 1 and 2)
From the text: To prepare neuralgia-induced mouse models, mice having a genetic background of 129S4/SvJae×C57BL/6J were used. According to a modification of the method described in the related art, a spared nerve injury (SNI) of sciatic nerve was induced in the mice.
Briefly, the mice were anesthetized with 3% isoflurane in a mixture of N2O/O2 gas. At the right hindlimb, incision was made at a mid-thigh level, and peripheral branches (sural, common peroneal, and tibial nerves) of the sciatic nerve were exposed. Both tibial and common peroneal nerves were tightly ligated with 8.0 silk thread together, and a 1-2 mm section of the two nerves was removed. The sural nerve was carefully preserved by avoiding any nerve stretch or nerve contact with surgical tools. Muscle and skin were closed in two distinct layers with chromic catgut 6.0 and silk 6.0 suture, respectively. During recovery, animals were housed in clear plastic cages with a thick layer of sawdust bedding.
Clonidine (2-[(2,6-dichlorophenyl)amino-2-imidazoleine hydrochloride, alpha2AR agonist) was purchased from Sigma (St. Louis, Mo., USA). CCG50014 was diluted in 12% dimethyl sulfoxide (DMSO) in saline.
Each drug was administered by intrathecal injection based on the technique developed by Hylden and Wilcox. […] drugs were dissolved in 5 μl of vehicle. Briefly, for mouse intrathecal injections, a 30-gauge needle (length: 0.5 inch) connected to a 50 μl Hamilton syringe was inserted into the subarachnoid space between the lumbar vertebrae L5 and L6. A flick of the mouse tail provided a reliable indicator that the needle had penetrated the dura meter. The syringe was held in position for a few seconds after the injection of 5 μl/mouse.
To evaluate a degree of pain alleviation in each of the neuralgic mice, a degree of pain responses to mechanical stimuli was measured by measuring mechanical threshold based on the method described in the related art. In detail, mechanical withdrawal thresholds were determined for all mice at day 0 prior to neuropathic surgery in order to obtain normal baseline values of withdrawal threshold to mechanical stimuli. For 56 days post-SNI surgery, all experimental animals were behaviorally tested to confirm the development of mechanical allodynia. […] The test was performed using an ascending series of von Frey filaments (North Coast Medical, Morgan Hill, Calif.). Mice were placed in an acrylic cylinder (6.5 cm in diameter and 17 cm in height) on an elevated metal mesh grid and allowed to acclimate for 30 minutes before testing. Each monofilament (0.008 g, 0.02 g, 0.07 g, 0.16 g, 0.4 g, and 0.6 g) was applied 6 times in ascending order to the midplantar region of each hind paw of mouse. The monofilament that produced a paw withdrawal, flinch, or lick in 3 of 6 applications was defined as the 50% paw withdrawal threshold. The behavioral investigator was blinded to the treatment of animals during the experiments.
(§1) Results of each of the experiments above are expressed as means±SEM unless otherwise stated. Data analysis and statistical comparisons were performed using GraphPad Prism version 5.0 (GraphPad Software, San Diego, Calif.). Comparison between two groups was made using the Student's t-test. For multiple comparisons, ANOVA followed by post hoc Tukey test was performed. Differences with P<0.05 were considered significant.

[2] = tested on: systolic blood pressure (SBP); conditions: mouse
Experimental: To evaluate the induction of low blood pressure, systolic blood pressure (SBP) was measured using a non-invasive computerized tail-cuff system as previously described in the art (PowerLab system, ADI Instrument Pry Ltd., Chain Hills, NSW, Australia). Briefly, animals were acclimated for 30 minutes in a quiet test room prior to obtaining cardiovascular measurements. At the end of the 1 hour period, the SBP was measured. This experiment was repeated 3 times and the mean value for each animal was recorded. […] All cardiovascular measurements were obtained between 1 pm to 3 pm in order to avoid changes due to normal circadian rhythms.
as §1, with “Test results” for “Results of each of the experiments above”

motion performance = conditions: mouse
Experimental: To evaluate degradation of motion performance capability as one of side effects caused by the low blood pressure, rotarod test was performed on each of the mice administered with clonidine or the RGS4 inhibitor. […] All mice were tested 24 hours before the actual rotarod test, and mice that were able to remain on the rod for at least 120 seconds were included in the experiment. 30 minutes after clonidine injection, each animal was subsequently tested on the rotarod over 2-minutes period and their performance time on the bar (in seconds) was measured. The test was repeated 3 times and the mean value for each animal was recorded.
as §1, with “Test results” for “Results of each of the experiments above”

[3] = cited from earlier work

SMILES	analgesic efficacy at the chronic stage of the neuropathic pain ([1]; mouse SNI)	analgesic efficacy at the earlier stage of the neuropathic pain ([1]; mouse SNI)	analgesic efficacy upon co-administration of CCG 50014 (RGS4 inhibitor) ([1]; mouse SNI)	analgesic effect of 1 nmol at 14 days after SNI [1]	analgesic effect at 28 days after SNI [1]	analgesic effect at 56 days after SNI [1]	analgesic effect at 14 days after SNI [1]	higher dose needed at 56 days after SNI for analgesic effect similar to that at 14 days after SNI [1]	neuropathic pain induced by SNI (withdrawal threshold) [1]	analgesic efficacy upon co-administration of dynasore ([1]; mouse SNI, 56th day after SNI, dynasore intrathecally 5 minutes before clonidine (FIG. 9))	low blood pressure side effect ([2]; 1 nmol in combination with the RGS4 inhibitor (FIG. 7))	blood pressure (SBP) change ([2]; clonidine 10 nmol alone (effective dose), 30 minutes after treatment (FIG. 7))	decreased motor performance side effect (motion performance; 1 nmol in combination with the RGS4 inhibitor (FIG. 8))	motor performance (rotarod) (motion performance; clonidine 10 nmol alone, 30 minutes after injection (FIG. 8))	side effect ([3]; healthy adult male, concentration gradient from about 150 μg to about 450 μg)	side effects ([3]; human, 1 μg/kg intravenously with lidocaine)	harmful side effect ([3]; human, 5 μg/kg orally)
Cc1cccc([C@H](C)c2c[nH]cn2)c1C.Cl [dexmedetomidine, 4-[(1S)-1-(2,3-dimethylphenyl)ethyl]-1H-imidazole hydrochloride]	lost the analgesic efficacy	exhibited the analgesic efficacy	maintained	significant analgesic effect	decreased	completely disappeared	potent analgesic effect	3 fold	alleviated	–	–	–	–	–	–	–	–
Clc1cccc(Cl)c1N=C1NCCN1 [clonidine, 2-[(2,6-dichlorophenyl)amino-2-imidazoleine hydrochloride]	lost the analgesic efficacy	exhibited the analgesic efficacy	maintained	significant analgesic effect	decreased	completely disappeared	potent analgesic effect	10 fold	alleviated	restored	no side effects	significant symptoms of low blood pressure	no side effects	rapidly decreased motor performance	no side effect	no statistically significant side effects	no harmful side effect
